System: P. falciparum 3D7 growth, pLDH absorbance
Assay: P. falciparum 3D7 growth inhibition, dose response, strain 3D7 (AID 2305)

| SMILES | IC50 [nM] |
| --- | --- |
| COc1ccc(CC(=O)NC(CCCN2CCC(c3ccccc3)CC2)c2ccc(Cl)c(Cl)c2)cc1OC (stereo not given) | 1050 |
| COc1cc(CCN(C)Cc2ccc(OC)c(OC)c2)ccc1NC(=O)c1cccc2c(=O)c3cccc(F)c3[nH]c12 | 200 |
| Nc1cc(-c2cccc(Cl)c2)nn1-c1ccnc2cc(Cl)ccc12 | 750 |
| CC(CN=C(N)c1cccc(C(N)=NCC(C)Oc2cccc(C3CCCCC3)c2)n1)Oc1cccc(C2CCCCC2)c1 (stereo not given) | 920 |
| CCCc1cc(NCC)nc(Nc2ccc(C)cc2)n1 | 890 |
| CC(C)(C)c1ccc(-c2csc(NC(=O)CC(c3ccccc3)c3ccccc3)n2)cc1 | 1150 |
| CS(=O)(=O)CCNCc1nc(-c2ccc3c(Nc4ccc(Oc5ccccn5)cc4)ccnc3c2)cs1 | 680 |
| Cc1cc(Cc2ccc(S(=O)(=O)c3cc4c(cc3O)CCN(C)CC4)cc2)ccc1Cl | 910 |
| CCCCc1cc(NCc2ccncc2)nc(Nc2ccccc2)n1 | 840 |
| CCN(CC)CCCN1CCN(C(=O)c2cccc(-c3noc(C(F)(F)F)n3)c2)CC1 | 150 |
| O=C(CNC1CCCCC1)Nc1cccc(C(=O)Nc2cccc(C(F)(F)F)c2)c1 | 420 |
| CC(C)(C)c1cc(N=NC(=O)c2ccncc2)cc(C(C)(C)C)c1O | 700 |
| CCCNC(=O)C1CCN(C(c2ccc(Cl)cc2)c2ccc(Cl)cc2)CC1 | 480 |
| O=C(/C=C/c1ccccc1F)NC1CCC(CCN2CCc3ccc(-c4cccnc4)cc3CC2)CC1 (stereo not given) | 900 |
| CC(C)(C)c1ccc(CN2CCC(CNC(=O)c3cc(-c4cccc(F)c4)cs3)C2)cc1 (stereo not given) | 900 |
| c1ccc(CNCc2ccc(-c3cccc(-c4nc5ccccc5[nH]4)c3)cc2)cc1 | 420 |
| COc1ccc(C(=O)CC(=O)c2ccc(OC)cc2OC)c(OC)c1 | 300 |
| Fc1ccc(C=NNc2nc3ccccc3[nH]2)cc1 | 780 |
| CN1CCCN(Cc2ccc(-c3ccc(NC(=O)c4ccc(Cl)cc4)cc3)cc2)CC1 | 900 |
| Cc1cc(=O)[nH]c(NC#N)n1 | 170 |
| O=C(Nc1ccc(I)cc1)Nc1ccc(Cn2ncc(N3CCCNCC3)c(Cl)c2=O)cc1 | 1120 |
| CCc1ccc(-n2c(NC(=O)c3ccccc3)nc3ccc(S(=O)(=O)NC(C)C(C)C)cc32)cc1 (stereo not given) | 930 |
| COc1cc(CNC2Cc3ccccc3C2)ccc1Oc1ccc2nc[nH]c2c1 | 950 |
| Fc1ccc(NC(=S)NN=Cc2ccccn2)cc1 | 770 |
| Cc1nc2nc(N)nc(N)c2c(C)c1Cc1c(Cl)cccc1Cl | 50 |

| SMILES | IC50 [nM] |
| --- | --- |
| O=C(c1ccco1)N1CCN(c2ccc([N+](=O)[O-])c(NC3CC3)c2)CC1 | 750 |
| Cc1cnc(CCNC(=O)c2cc(-c3ccc(Cl)cc3)cs2)[nH]1 | 240 |
| COc1cc2c(cc1OCCN1CCC(N)CC1)N(C(=O)/C=C/c1ccccc1Cl)CC2 | 1120 |
| COCc1ccc(CN2CCC(C(=O)Nc3ccc(-c4nc5ccccc5[nH]4)cc3)CC2)o1 | 850 |
| COc1cccc(NC(=O)c2nc(N3CCN(c4ccncc4)CC3)ccc2Cl)c1 | 920 |
| O=C(/C=C/c1ccc(Cl)c(Cl)c1)NCCCCCN1CCC(NC(=O)Nc2ccc(Cl)cc2F)CC1 | 310 |
| O=C(Nc1ccc(OC2CCN(Cc3ccsc3)C2)c(Cl)c1)c1ccco1 (stereo not given) | 600 |
| OC1CCCN(Cc2ccc(-c3cccc(-c4nc5ccc(F)cc5[nH]4)c3)cc2)C1 (stereo not given) | 870 |
| Cc1cccc2[nH]c(-c3cccc(-c4ccc(NC(=O)C(C)CN(C)C)cc4)c3)nc12 (stereo not given) | 220 |
| N#Cc1ccc2c(c1)CCN(CCCn1c(-c3ccc4ccccc4c3)nc3ccncc31)CC2 | 200 |
| CCCOc1cc(NC(=O)Nc2ccnc3ccccc23)cc(OCCC)c1 | 730 |
| CC(C)N1CCC(N(Cc2ccc(-c3ccc(Cl)cc3)cc2)C(=O)Cn2c(CCc3cccc(F)c3F)cc(=O)c3ccccc32)CC1 | 930 |
| COc1ccc(CNC(=O)c2cnc3c(O)cccc3c2Nc2cccc(NC(=O)c3ccc(-c4ccccc4)cc3)c2)cc1 | 940 |
| CCCCCCc1cnc2nc(N)nc(N)c2c1C | 190 |
| CC(C)CNCc1cccc(-c2cccc(CN(CCN(C)C)C(=O)Nc3ccccc3)c2)c1 | 800 |
| O=C(NC1CCCc2ccccc21)C1CCCN(C(=O)c2ccc(O)c(-c3ccc(Cl)c(Cl)c3)c2)C1 (stereo not given) | 1140 |
| CCCCNS(=O)(=O)c1ccc(NC(=O)c2cc([N+](=O)[O-])ccc2Cl)cc1 | 900 |
| NC1=NC2(CCCCC2)N(OCCCCCCCCNc2nc(N)nc(N)n2)C(N)=N1 | 60 |
| CN1CCCN(Cc2ccc(-c3ccc(NS(=O)(=O)c4cccc5cccnc45)cc3)cc2)CC1 | 690 |
| CC(C)(C)c1ccc(OC(=O)c2ccc(NC(=O)N[C@@H](Cc3ccc(O)cc3)C(=O)NC3CCN(Cc4ccc(O)cc4)C3)cc2)cc1 (stereo not given in full) | 810 |
| Oc1cccc(C2CCCN(CCc3c[nH]c4ccccc34)C2)c1 (stereo not given) | 860 |
| COC(=O)c1cccc(CNCc2cccc(-c3ccc(-c4nc5ccccc5[nH]4)cc3)c2)c1 | 350 |
| CN1CCC(NCc2cccc(-c3ccc(S(=O)(=O)NCCc4ccccn4)c(F)c3)c2)CC1 | 920 |
| O=C(Nc1ccc(-c2nc3ccc(NC(=O)c4ccc(Br)cc4)cc3[nH]2)cc1)c1ccc(Br)cc1 | 790 |
| Cc1cccc(Nc2nc(N)c3ccccc3n2)c1 | 570 |
